{"source": "patent US20190142886A1", "about": "“Ecklonia cava extract and a pharmaceutical composition for preventing or treating vascular diseases comprising the same as an active ingredient” (Gachon University of Industry-Academic Cooperation …, priority 2017, published 2019)", "key": {"fat cell": {"tested_on": "fat cell", "assay": "Fat cell size in obesity-induced ob/ob mouse model (H&E staining)", "type": "in vivo", "conditions": "ob/ob mice, oral 2.5 mg/kg, 42 days; vs saline group, p<0.005", "source_text": "(§1) 6-week-old male ob/ob mice were selected. Weight gain was induced by a general diet for 6 weeks. Then, the effect of the PPB prepared in Example 1 was investigated.\n(§2) Particularly, the mice were adapted to the animal room environment for 1 week. Then, the mice were divided into two groups, which were fed with a general diet for 42 days (6 weeks). These two groups were the control (saline group) that was fed with a general diet and orally administered with saline and the experimental group (PPB group) that was fed with a general diet and orally administered with PPB at the dose of 2.5 mg/kg.\nThe adipose tissues were obtained from the mice of the control group and the PPB-treated experimental group prepared in Example <4-1>, and the changes of fat cell size were observed.\nParticularly, the adipose tissues obtained from the mice of the control and experimental groups were made into a paraffin block, which was sectioned in the thickness of 7 μm, followed by hematoxylin-eosin staining (H&E staining). The stained tissues were photographed with Axio Imager Z1 upright microscopy system and the cell size was measured by using ImageJ 1.50i software."}, "liver tissue": {"tested_on": "liver tissue", "assay": "Fat accumulation in liver tissue of ob/ob mouse (Oil-red-O)", "type": "in vivo", "conditions": "ob/ob mice, oral 2.5 mg/kg, 42 days; vs saline group, p<0.005", "source_text": "as §1, §2\nThe liver tissues were obtained from the mice of the control group and the experimental group prepared in Example <4-1>. The obtained liver tissues were made into a frozen block, which was sectioned in the thickness of 10 μm. The tissue sections were stained with 0.375% (w/v) Oil-red-O powder. The stained tissues were photographed with Axio Imager Z1 upright microscopy system and the fat accumulation area was measured by using ImageJ 1.50i software."}, "[1]": {"tested_on": "mouse-derived vascular endothelial cells (SVEC4-10)", "assay": "PPB in vascular endothelial cell death model (palmitic acid), MTT assay", "type": "cell-based", "conditions": "0.25 mM palmitic acid, 24 hours", "protocol": "Mouse-derived vascular endothelial cells (SVEC4-10) in DMEM (Dulbecco's Modified Eagle Medium) supplemented with 10% fetal bovine serum and 1% antibiotics (penicillin/streptomycin) were cultured in a 37° C., 5% CO2 incubator. To obtain sufficient cells, the cells were cultured in 100 Ø plastic dishes. When the cells were cultured until the bottom of the dish was covered 80% by the cells, the adhered cells were detached using trypsin/EDTA solution and then sub-cultured.\nThe mouse-derived vascular endothelial cells (SVEC4-10) obtained in Example <5-1> were treated with 0.25 mM palmitic acid, leading to the construction of a vascular endothelial cell death model (in vitro).\nThe cells were treated with PPB at different concentrations for 24 hours. 24 hours later, MTT assay was performed to confirm the number of survived cells. From the result, the effect of PPB on the survival of vascular endothelial cells in the presence of palmitic acid was analyzed."}, "[2]": {"tested_on": "Plasminogen activator inhibitor type-1 (PAI-1)", "assay": "Plasma PAI-1 level in ob/ob mouse by ELISA kit", "type": "in vivo", "conditions": "ob/ob mice, oral 2.5 mg/kg, 42 days; compared with saline control group", "source_text": "as §1, §2\nIn order to measure PAI-1, the biomarker for improving blood circulation, blood was collected from the mouse, and the plasma PAI-1 level was measured by using an ELISA kit."}}}
{"compound": "Oc1cc(O)cc(Oc2c(O)cc(Oc3cc(O)cc(Oc4c(O)cc(O)c5c4Oc4c(O)cc(O)c(-c6c(O)cc(O)c7c6Oc6c(O)cc(O)c(Oc8cc(O)cc(O)c8)c6O7)c4O5)c3)cc2O)c1", "note": "[PPB, pyrogallol-phloroglucinol-6,6-bieckol]", "values": [{"measurement": "fat cell size", "setting": "fat cell", "value": "significantly decreased"}, {"measurement": "fat accumulation area in liver tissue", "setting": "liver tissue", "value": "significantly decreased"}, {"measurement": "number of survived cells", "setting": "[1]; 5 ug/ml, vs control non-treated with PPB", "value": "not much different"}, {"measurement": "survival rate of vascular endothelial cells", "setting": "[1]; 10 ug/ml", "value": "significantly increased"}, {"measurement": "blood PAI-1 level", "setting": "[2]", "value": "reduced"}]}
